Measured values: patent publication US20230159453A1 (COCRYSTAL PHARMA, INC., priority 2020, published 2023)

molecular target: SARS2 protease (Severe acute respiratory syndrome coronavirus 2, UniProt P0DTD1); experiment: SARS-CoV-2 protease inhibition assay (SARS2 FRET protease assay); type: biochemical; conditions: SARS-CoV-2 protease 25 nM, FRET, peptide substrate 1.3 μM, 30 minutes at 30° C., compounds 20 μM to 1.0 nM; read-out: IC50

| Structure (SMILES) | IC50 [nM] |
| --- | --- |
| CC(C)C[C@H](NC(=O)OC(c1ccc(Cl)cc1)C1(c2cccc(Cl)c2)CC1)C(=O)N[C@@H](C[C@@H]1CCNC1=O)C(=O)C(=O)NC1CC1 (stereo partly drawn) [Compound C201, (4-Chlorophenyl)(1-(3-chlorophenyl)cyclopropyl) methyl ((S)-1-(((S)-4-(cyclopropylamino)-3,4-dioxo-1-((S)-2-oxopyrrolidin-3-yl)butan-2-yl)amino)-4-methyl-1-oxopentan-2-yl) carbamate] | 4.4 |
| CC(C)(C)C(=O)N1CCC2(CC1)CC(CC(C=O)NC(=O)[C@H](CC1CCCCC1)NC(=O)OC1CCCC1Cc1cccc(Cl)c1)C(=O)N2 (stereo partly drawn) [Compound C202, 2-(3-Chlorobenzyl) cyclopentyl ((2S)-3-cyclohexyl-1-oxo-1-((1-oxo-3-(2-oxo-8-pivaloyl-1,8-diazaspiro[4.5]decan-3-yl)propan-2-yl)amino)propan-2-yl)carbamate] | 644 |
| CC(C)C[C@H](NC(=O)OC(c1cccc(Cl)c1)C1(c2cccc(Cl)c2)CC1)C(=O)N[C@H](C=O)C[C@@H]1CCNC1=O (stereo partly drawn) [Compound C203, (3-chlorophenyl)(1-(3-chlorophenyl)cyclopropyl)methyl ((S)-4-methyl-1-oxo-1-(((S)-1-oxo-3-((S)-2-oxopyrrolidin-3-yl)propan-2-yl)amino)pentan-2-yl)carbamate] | 10.5 |
| CC(C)C[C@H](NC(=O)OC1(Cc2cccc(Cl)c2)CCC1)C(=O)NC(C=O)CC1CC2(CCOCC2)NC1=O (stereo partly shown) [Compound C204] | 224 |
| CC1(C)CC(CC(NC(=O)[C@H](CC2CCCCC2)NC(=O)OC(c2cccc(F)c2)C(C)(C)c2cccc(Cl)c2)C(=O)C(=O)NC2CC2)C(=O)N1 (stereo partly drawn) [Compound C205, 2-(3-Chlorophenyl)-1-(3-fluorophenyl)-2-methylpropyl ((2S)-3-cyclohexyl-1-((4-(cyclopropylamino)-1-(5,5-dimethyl-2-oxopyrrolidin-3-yl)-3,4-dioxobutan-2-yl)amino)-1-oxopropan-2-yl)carbamate] | 2560 |
| O=C(N[C@@H](CC1CCCCC1)C(=O)NC(CC1CC2(CCOCC2)NC1=O)C(=O)C(=O)NC1CC1)OC1CCCC1Cc1cccc(Cl)c1 (stereo partly drawn) [Compound C206, 2-(3-Chlorobenzyl)cyclopentyl ((2S)-3-cyclohexyl-1-((4-(cyclopropylamino)-3,4-dioxo-1-(2-oxo-8-oxa-1-azaspiro[4.5]decan-3-yl)butan-2-yl)amino)-1-oxopropan-2-yl)carbamate] | 5110 |
| CC(C)C[C@H](NC(=O)OC(c1ccccc1)C(C)(C)c1cccc(Cl)c1)C(=O)N[C@@H](C[C@@H]1CCNC1=O)C(=O)C(N)=O (stereo partly drawn) [Compound C207, 2-(3-Chlorophenyl)-2-methyl-1-phenylpropyl ((S)-1-(((S)-4-amino-3,4-dioxo-1-((S)-2-oxopyrrolidin-3-yl)butan-2-yl)amino)-4-methyl-1-oxopentan-2-yl)carbamate] | 315 |
| CC(C)C[C@H](NC(=O)OC(c1ccccc1)C(C)(C)c1cccc(Cl)c1)C(=O)N[C@@H](C[C@@H]1CCNC1=O)C(=O)CCl (stereo partly drawn) [Compound C209, 2-(3-Chlorophenyl)-2-methyl-1-phenylpropyl ((S)-1-(((S)-4-chloro-3-oxo-1-((S)-2-oxopyrrolidin-3-yl)butan-2-yl)amino)-4-methyl-1-oxopentan-2-yl)carbamate] | 1870 |
| CC(C)(C)C(=O)N1CCC2(CC1)CC(CC(NC(=O)[C@H](CC1CCCCC1)NC(=O)OC1CCCC1Cc1cccc(Cl)c1)C(=O)C(=O)NC1CC1)C(=O)N2 (stereo partly drawn) [Compound C210, 2-(3-Chlorobenzyl) cyclopentyl ((2S)-3-cyclohexyl-1-((4-(cyclopropylamino)-3,4-dioxo-1-(2-oxo-8-pivaloyl-1,8-diazaspiro[4.5]decan-3-yl)butan-2-yl)amino)-1-oxopropan-2-yl) carbamate] | 2650 |
| CCNC(=O)C(=O)[C@H](C[C@@H]1CCNC1=O)NC(=O)[C@H](CC1CCCCC1)NC(=O)OC(c1ccccc1)C(C)(C)c1cccc(Cl)c1 (stereo partly drawn) [Compound C211, 2-(3-Chlorophenyl)-2-methyl-1-phenylpropyl ((S)-3-cyclohexyl-1-(((S)-4-(ethylamino)-3,4-dioxo-1-((S)-2-oxopyrrolidin-3-yl)butan-2-yl)amino)-1-oxopropan-2-yl) carbamate] | 339 |
| CC(C)(C)C(=O)N1CCC2(CC1)CC(CC(C=O)NC(=O)[C@H](CC1CCCCC1)NC(=O)OCc1cccc(Cl)c1)C(=O)N2 (stereo partly drawn) [Compound C212, 3-Chlorobenzyl ((2S)-3-cyclohexyl-1-oxo-1-((1-oxo-3-(2-oxo-8-pivaloyl-1,8-diazaspiro[4.5]decan-3-yl)propan-2-yl)amino)propan-2-yl)carbamate] | 194 |
| O=C(N[C@@H](CC1CCCCC1)C(=O)N[C@@H](C[C@@H]1CCNC1=O)C(=O)C(=O)NC1CC1)OC(c1cccc(Cl)c1)C1(c2cccc(Cl)c2)CC1 (stereo partly shown) [Compound C213] | 257 |
| COc1cccc2[nH]c(C(=O)N[C@@H](CC(C)C)C(=O)NC(C=O)CC3CC4(CCCCC4)NC3=O)cc12 (stereo partly drawn) [Compound C214, 4-Methoxy-N-((2S)-4-methyl-1-oxo-1-((1-oxo-3-(2-oxo-1-azaspiro[4.5]decan-3-yl)propan-2-yl)amino)pentan-2-yl)-1H-indole-2-carboxamide] | 11 |
| CC(C)C(OC(=O)N[C@@H](CC1CCCCC1)C(=O)N[C@@H](C[C@@H]1CCNC1=O)C(=O)C(N)=O)c1ccccc1 (stereo partly drawn) [Compound C216, 2-Methyl-1-phenylpropyl ((S)-1-(((S)-4-amino-3,4-dioxo-1-((S)-2-oxopyrrolidin-3-yl)butan-2-yl)amino)-3-cyclohexyl-1-oxopropan-2-yl)carbamate] | 3100 |
| CC1(C)CC(CC(NC(=O)[C@H](CC2CCCCC2)NC(=O)OC(Cc2cccc(Cl)c2)c2ccccc2)C(=O)C(N)=O)C(=O)N1 (stereo partly drawn) [Compound C217, 2-(3-Chlorophenyl)-1-phenylethyl ((2S)-1-((4-amino-1-(5,5-dimethyl-2-oxopyrrolidin-3-yl)-3,4-dioxobutan-2-yl)amino)-3-cyclohexyl-1-oxopropan-2-yl) carbamate] | 3990 |
| CC(C)C[C@H](NC(=O)OC(c1ccccc1)C(C)(C)c1cccc(Cl)c1)C(=O)NC(CC1CC(C)(C)NC1=O)C(=O)C(N)=O (stereo partly drawn) [Compound C218, 2-(3-Chlorophenyl)-2-methyl-1-phenylpropyl ((2S)-1-((4-amino-1-(5,5-dimethyl-2-oxopyrrolidin-3-yl)-3,4-dioxobutan-2-yl)amino)-4-methyl-1-oxopentan-2-yl)carbamate] | 1850 |
| CC1(C)CC(CC(NC(=O)[C@H](CC2CCCCC2)NC(=O)OC(c2cccc(F)c2)C(C)(C)c2cccc(Cl)c2)C(=O)C(N)=O)C(=O)N1 (stereo partly drawn) [Compound C220, 2-(3-Chlorophenyl)-1-(3-fluorophenyl)-2-methylpropyl ((2S)-1-((4-amino-1-(5,5-dimethyl-2-oxopyrrolidin-3-yl)-3,4-dioxobutan-2-yl)amino)-3-cyclohexyl-1-oxopropan-2-yl)carbamate] | 1830 |
| CC1(C)CC(CC(C=O)NC(=O)[C@H](CC2CCCCC2)NC(=O)OC(c2cccc(F)c2)C(C)(C)c2cccc(Cl)c2)C(=O)N1 (stereo partly drawn) [Compound C222, 2-(3-Chlorophenyl)-1-(3-fluorophenyl)-2-methylpropyl ((2S)-3-cyclohexyl-1-((1-(5,5-dimethyl-2-oxopyrrolidin-3-yl)-3-oxopropan-2-yl)amino)-1-oxopropan-2-yl)carbamate] | 235 |
| O=CC(CC1CC2(CCCCC2)NC1=O)NC(=O)[C@H](CC1CCCCC1)NC(=O)OC1CCCC1Cc1cccc(Cl)c1 (stereo partly drawn) [Compound C223, 2-(3-Chlorobenzyl)cyclopentyl ((2S)-3-cyclohexyl-1-oxo-1-((1-oxo-3-(2-oxo-1-azaspiro[4.5]decan-3-yl)propan-2-yl)amino)propan-2-yl)carbamate] | 781 |
| O=C[C@H](C[C@@H]1CCNC1=O)NC(=O)[C@H](CC1CCCCC1)NC(=O)O[C@H]1CCC[C@H]1Cc1cccc(Cl)c1 [Compound C224, (1S,2S)-2-(3-Chlorobenzyl) cyclopentyl ((S)-3-cyclohexyl-1-oxo-1-(((S)-1-oxo-3-((S)-2-oxopyrrolidin-3-yl)propan-2-yl)amino)propan-2-yl) carbamate] | 183 |
| O=CC(CC1CC2(CCOCC2)NC1=O)NC(=O)[C@H](CC1CCCCC1)NC(=O)OC1CCCC1Cc1cccc(Cl)c1 (stereo partly drawn) [Compound C225, 2-(3-chlorobenzyl)cyclopentyl ((2S)-3-cyclohexyl-1-oxo-1-((1-oxo-3-(2-oxo-8-oxa-1-azaspiro[4.5]decan-3-yl)propan-2-yl)amino)propan-2-yl)carbamate] | 1010 |
| CC(C)C[C@H](NC(=O)OC(c1ccc(Cl)cc1)C(C)(C)c1cccc(Cl)c1)C(=O)N[C@@H](C[C@@H]1CCNC1=O)C(=O)C(=O)NC1CC1 (stereo partly drawn) [Compound C226, 2-(3-chlorophenyl)-1-(4-chlorophenyl)-2-methylpropyl ((S)-1-(((S)-4-(cyclopropylamino)-3,4-dioxo-1-((S)-2-oxopyrrolidin-3-yl)butan-2-yl)amino)-4-methyl-1-oxopentan-2-yl)carbamate] | 57 |
| COc1cccc2[nH]c(C(=O)N[C@@H](CC(C)C)C(=O)NC(CC3CC4(CCCCC4)NC3=O)C(=O)CCl)cc12 (stereo partly drawn) [Compound C227, N-((2S)-1-((4-chloro-3-oxo-1-(2-oxo-1-azaspiro[4.5]decan-3-yl)butan-2-yl)amino)-4-methyl-1-oxopentan-2-yl)-4-methoxy-1H-indole-2-carboxamide] | 59 |
| O=C(O)C(=O)C(CC1CC2(CCCCC2)NC1=O)NC(=O)[C@H](CC1CCCCC1)NC(=O)c1cc2ccccc2[nH]1 (stereo partly drawn) [Compound C228, 3-((S)-3-Cyclohexyl-2-(1H-indole-2-carboxamido)propanamido)-2-oxo-4-(2-oxo-1-azaspiro[4.5]decan-3-yl)butanoic acid] | 120 |
| O=CC(CC1CC2(CCC2)NC1=O)NC(=O)[C@H](CC1CCCCC1)NC(=O)OCc1cccc(Cl)c1 (stereo partly drawn) [Compound C229, 3-Chlorobenzyl ((2S)-3-cyclohexyl-1-oxo-1-((1-oxo-3-(6-oxo-5-azaspiro[3.4]octan-7-yl)propan-2-yl)amino)propan-2-yl)carbamate] | 0.8 |
